Test results published in ChEMBL document CHEMBL1201862, “PubChem BioAssay data set” (2004).
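48-hour exposure; five concentrations; linearly interpolated endpoints. Abbreviation: GI50, concentration required for 50% inhibition of growth.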 Calls of active or inactive are those of the source. Cut-off read from the data, not from the text of the source: active = GI50 up to about 1.1 µM and inactive = higher.

Assays:
Assay in all cases: DTP human tumour cell line panel, 48 h
SK-MEL-2 = test system: SK-MEL-2
MOLT-4 = test system: MOLT-4
TK-10 = test system: TK-10
786-0 = test system: 786-0
KM-20L2 = test system: KM-20L2
UO-31 = test system: UO-31
RXF 631 = test system: RXF 631
M19-MEL = test system: M19-MEL
HCC 2998 = test system: HCC 2998
KM12 = test system: KM12
RPMI-8226 = test system: RPMI-8226
SF-539 = test system: SF-539
CCRF-CEM = test system: CCRF-CEM
UACC-257 = test system: UACC-257
HCT-15 = test system: HCT-15
SK-OV-3 = test system: SK-OV-3
DLD-1 = test system: DLD-1
OVCAR-8 = test system: OVCAR-8
UACC-62 = test system: UACC-62
A498 = test system: A498
DMS-114 = test system: DMS-114
A549 = test system: A549
CAKI-1 = test system: CAKI-1
SNB-78 = test system: SNB-78
LXFL 529 = test system: LXFL 529
OVCAR-4 = test system: OVCAR-4
HOP-62 = test system: HOP-62
M14 = test system: M14
SW-620 = test system: SW-620
SNB-19 = test system: SNB-19
HCT-116 = test system: HCT-116
SK-MEL-5 = test system: SK-MEL-5
U-251 = test system: U-251
K562 = test system: K562
HL-60 = test system: HL-60
IGROV-1 = test system: IGROV-1
DMS-273 = test system: DMS-273
LOX IMVI = test system: LOX IMVI
HOP-92 = test system: HOP-92
OVCAR-5 = test system: OVCAR-5
Malme-3M = test system: Malme-3M
SF-295 = test system: SF-295
NCI-H460 = test system: NCI-H460
COLO 205 = test system: COLO 205
OVCAR-3 = test system: OVCAR-3
ACHN = test system: ACHN
EKVX = test system: EKVX
SR = test system: SR
SN12C = test system: SN12C
NCI-H23 = test system: NCI-H23
SNB-75 = test system: SNB-75
RXF 393 = test system: RXF 393
HT-29 = test system: HT-29
SK-MEL-28 = test system: SK-MEL-28
NCI-H522 = test system: NCI-H522
NCI-H226 = test system: NCI-H226

NS(=O)(=O)c1cc2c(cc1Cl)NC(/C(=N/NC(=O)c1ccncc1)C1C(=O)NC(=O)NC1=O)=NS2(=O)=O
GI50 (SK-MEL-2): > 100 µM (inactive) | GI50 (MOLT-4): > 100 µM (inactive) | GI50 (TK-10): > 100 µM (inactive) | GI50 (786-0): > 100 µM (inactive) | GI50 (KM-20L2): > 100 µM (inactive) | GI50 (UO-31): 95.3 µM (inactive) | GI50 (RXF 631): > 100 µM (inactive) | GI50 (M19-MEL): > 100 µM (inactive) | GI50 (HCC 2998): > 100 µM (inactive) | GI50 (KM12): > 100 µM (inactive) | GI50 (RPMI-8226): > 100 µM (inactive) | GI50 (SF-539): > 100 µM (inactive) | GI50 (CCRF-CEM): > 100 µM (inactive) | GI50 (UACC-257): > 100 µM (inactive) | GI50 (HCT-15): > 100 µM | GI50 (SK-OV-3): > 100 µM (inactive) | GI50 (DLD-1): > 100 µM (inactive) | GI50 (OVCAR-8): > 100 µM (inactive) | GI50 (UACC-62): > 100 µM (inactive) | GI50 (A498): > 100 µM (inactive) | GI50 (DMS-114): > 100 µM (inactive) | GI50 (A549): > 100 µM (inactive) | GI50 (CAKI-1): > 100 µM (inactive) | GI50 (SNB-78): > 100 µM (inactive) | GI50 (LXFL 529): > 100 µM (inactive) | GI50 (OVCAR-4): > 100 µM (inactive) | GI50 (HOP-62): > 100 µM (inactive) | GI50 (M14): > 100 µM (inactive) | GI50 (SW-620): > 100 µM (inactive) | GI50 (SNB-19): 83.6 µM (inactive) | GI50 (HCT-116): 55.8 µM (inactive) | GI50 (SK-MEL-5): > 100 µM (inactive) | GI50 (U-251): > 100 µM (inactive) | GI50 (K562): > 100 µM (inactive) | GI50 (HL-60): > 100 µM (inactive) | GI50 (IGROV-1): > 100 µM (inactive) | GI50 (DMS-273): > 100 µM (inactive) | GI50 (LOX IMVI): > 100 µM (inactive) | GI50 (HOP-92): > 100 µM (inactive) | GI50 (OVCAR-5): > 100 µM (inactive) | GI50 (Malme-3M): > 100 µM (inactive) | GI50 (SF-295): > 100 µM (inactive) | GI50 (NCI-H460): > 100 µM (inactive) | GI50 (COLO 205): > 100 µM (inactive) | GI50 (OVCAR-3): > 100 µM (inactive) | GI50 (ACHN): > 100 µM (inactive) | GI50 (EKVX): > 100 µM (inactive)

O=c1[nH]c(-c2ccc(-c3nc4cc([N+](=O)[O-])ccc4c(=O)[nH]3)cc2)nc2cc([N+](=O)[O-])ccc12
GI50 (SK-MEL-2): > 100 µM (inactive) | GI50 (MOLT-4): > 100 µM (inactive) | GI50 (TK-10): > 100 µM (inactive) | GI50 (SR): > 100 µM (inactive) | GI50 (786-0): 72.9 µM (inactive) | GI50 (KM-20L2): > 100 µM (inactive) | GI50 (UO-31): > 100 µM (inactive) | GI50 (RXF 631): > 100 µM (inactive) | GI50 (M19-MEL): > 100 µM (inactive) | GI50 (HCC 2998): > 100 µM (inactive) | GI50 (KM12): > 100 µM (inactive) | GI50 (RPMI-8226): > 100 µM (inactive) | GI50 (SF-539): > 100 µM (inactive) | GI50 (CCRF-CEM): > 100 µM (inactive) | GI50 (UACC-257): > 100 µM (inactive) | GI50 (HCT-15): > 100 µM | GI50 (SN12C): > 100 µM (inactive) | GI50 (SK-OV-3): > 100 µM (inactive) | GI50 (DLD-1): > 100 µM (inactive) | GI50 (OVCAR-8): > 100 µM (inactive) | GI50 (UACC-62): > 100 µM (inactive) | GI50 (A498): 16 µM (inactive) | GI50 (DMS-114): > 100 µM (inactive) | GI50 (A549): > 100 µM (inactive) | GI50 (CAKI-1): > 100 µM (inactive) | GI50 (SNB-78): > 100 µM (inactive) | GI50 (LXFL 529): > 100 µM (inactive) | GI50 (NCI-H23): > 100 µM (inactive) | GI50 (OVCAR-4): 48.8 µM (inactive) | GI50 (HOP-62): > 100 µM (inactive) | GI50 (M14): > 100 µM (inactive) | GI50 (SW-620): > 100 µM (inactive) | GI50 (SNB-75): 42.1 µM (inactive) | GI50 (SNB-19): > 100 µM (inactive) | GI50 (HCT-116): > 100 µM (inactive) | GI50 (RXF 393): > 100 µM (inactive) | GI50 (SK-MEL-5): > 100 µM (inactive) | GI50 (HT-29): > 100 µM (inactive) | GI50 (SK-MEL-28): > 100 µM (inactive) | GI50 (U-251): > 100 µM (inactive) | GI50 (K562): > 100 µM (inactive) | GI50 (HL-60): > 100 µM (inactive) | GI50 (IGROV-1): > 100 µM (inactive) | GI50 (NCI-H522): > 100 µM (inactive) | GI50 (DMS-273): > 100 µM (inactive) | GI50 (LOX IMVI): > 100 µM (inactive) | GI50 (HOP-92): > 100 µM (inactive) | GI50 (NCI-H226): > 100 µM (inactive) | GI50 (OVCAR-5): > 100 µM (inactive) | GI50 (Malme-3M): > 100 µM (inactive) | GI50 (SF-295): > 100 µM (inactive) | GI50 (NCI-H460): > 100 µM (inactive) | GI50 (COLO 205): > 100 µM (inactive) | GI50 (OVCAR-3): > 100 µM (inactive) | GI50 (ACHN): > 100 µM (inactive) | GI50 (EKVX): > 100 µM (inactive)
